Experimental data published in US8541407B2 (ArQule, Inc., priority 2010, dated 2013).
Structures can show the parent of a compound that is named as a salt.

Molecular target: AKT1 (Homo sapiens (Human), UniProt P31749)
Assay: Inactive Akt Alpha Screen Assay
Settings: non *labeled: Akt Alpha Screen assay; read-out: AKT1 biochemical assay, IC50
Procedure: AKT1 activity was assayed using the GSK3-derived biotinylated peptide substrate, crosstide (biotin-[…]), and AlphaScreen™ (Amplified Luminescent Proximity Homogeneous Assay) technology. AKT1 activation was achieved by the addition of the activating kinases PDK1 and MAPKAPK2, lipid vesicles, and ATP. The extent of peptide phosphorylation was determined using a phospho-AKT substrate antibody and acceptor beads conjugated to Protein A and donor beads conjugated to streptavidin that bind to the biotin on the peptide. Excitation of the donor beads converted ambient oxygen to excited singlet oxygen which, when in close proximity to acceptor beads, reacted with acceptor beads resulting in signal amplification. […] The plates were incubated for 30 minutes at room temperature, and then stopped in the dark by the addition of 10 μL stop/detection mixture prepared in assay buffer containing EDTA, AlphaScreen™ Streptavidin Donor and Protein A Acceptor beads, and phospho-AKT substrate antibody for final concentrations of 10 mM EDTA, 500 ng/well of both AlphaScreen™ Streptavidin Donor beads and Protein A Acceptor beads, and phospho-AKT substrate antibody at a final dilution of 1:350. Assay plates were incubated for 90 minutes at room temperature in the dark, and the plates were read on a Perkin Elmer Envision Multilabel plate reader (excitation wavelength: […], emission wavelength: 570 nm). […] Envision Instrument Settings: • Instrument: Perkin Elmer Envision • Plate: 96 well • Program Name: • Excitation: Ex Top • Mirror: General Dual—Slot 2 • Excitation Filter: CFP430 Ex.

AKT1, sequence (P31749 whole entry): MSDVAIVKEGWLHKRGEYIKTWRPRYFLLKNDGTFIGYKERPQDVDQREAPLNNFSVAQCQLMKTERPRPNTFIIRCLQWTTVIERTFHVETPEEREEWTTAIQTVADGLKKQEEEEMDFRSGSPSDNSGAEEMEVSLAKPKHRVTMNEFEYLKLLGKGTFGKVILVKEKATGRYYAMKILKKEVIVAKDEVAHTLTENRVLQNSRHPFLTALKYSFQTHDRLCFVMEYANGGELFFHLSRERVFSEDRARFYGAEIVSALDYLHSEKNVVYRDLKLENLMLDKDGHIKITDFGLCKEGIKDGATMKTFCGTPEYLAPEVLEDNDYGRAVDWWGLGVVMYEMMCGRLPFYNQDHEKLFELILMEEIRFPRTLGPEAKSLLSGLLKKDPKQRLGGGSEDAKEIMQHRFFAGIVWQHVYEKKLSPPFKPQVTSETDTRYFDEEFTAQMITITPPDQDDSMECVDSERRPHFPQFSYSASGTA

SMILES | IC50
Cc1cccc(NC(=O)NCc2ccc(-c3nnc4n3-c3cccnc3Nc3ccccc3-4)cc2)c1 [Example 125, 1-(4-(9H-benzo[f]pyrido[2,3-b][1,2,4]triazolo[4,3-d][1,4]diazepin-3-yl)benzyl)-3-(m-tolyl)urea] | 0.48 µM
N#CC1(c2ccccc2)CCN(Cc2ccc(-c3nnc4n3-c3cccnc3Nc3ccccc3-4)cc2)CC1 [Example 163, 1-(4-(9H-benzo[f]pyrido[2,3-b][1,2,4]triazolo[4,3-d][1,4]diazepin-3-yl)benzyl)-4-phenylpiperidine-4-carbonitrile] | 7.3 µM
O=S(=O)(NCc1ccc(-c2nnc3n2-c2cccnc2Nc2ccccc2-3)cc1)c1ccc(Cl)cc1 [Example 119, N-(4-(9H-benzo[f]pyrido[2,3-b][1,2,4]triazolo[4,3-d][1,4]diazepin-3-yl)benzyl)-4-chlorobenzenesulfonamide] | 0.22 µM
CN(C)c1ccc(-c2nnc3n2-c2ccccc2Nc2ccccc2-3)cc1 [Example 21, 4-(9H-dibenzo[b,f][1,2,4]triazolo[4,3-d][1,4]diazepin-3-yl)-N,N-dimethylaniline] | 3.5 µM
NC1(c2ccc(-c3nnc4n3-c3cnccc3Nc3ccccc3-4)cc2)CCC1 [Example 220, 1-(4-(9H-benzo[f]pyrido[4,3-b][1,2,4]triazolo[4,3-d][1,4]diazepin-3-yl)phenyl)cyclobutanamine] | 5 µM
OCc1ccc(-c2nnc3n2-c2cccnc2Nc2ccccc2-3)cc1 [Example 23, (4-(9H-benzo[f]pyrido[2,3-b][1,2,4]triazolo[4,3-d][1,4]diazepin-3-yl)phenyl)methanol] | 1 µM
COc1ccc(C)cc1NC(=O)NC1CCN(Cc2ccc(-c3nnc4n3-c3cccnc3Nc3ccccc3-4)cc2)CC1 [Example 166, 1-(1-(4-(9H-benzo[f]pyrido[2,3-b][1,2,4]triazolo[4,3-d][1,4]diazepin-3-yl)benzyl)piperidin-4-yl)-3-(2-methoxy-5-methylphenyl)urea] | 0.72 µM
COCCN(C)Cc1ccc(-c2nnc3n2-c2cccnc2Nc2ccccc2-3)cc1 [Example 77, N-(4-(9H-benzo[f]pyrido[2,3-b][1,2,4]triazolo[4,3-d][1,4]diazepin-3-yl)benzyl)-2-methoxy-N-methylethanamine] | 4.7 µM
CC(C)(C)CC(=O)Nc1ccc(-c2nnc3n2-c2cccnc2Nc2ccccc2-3)cc1 [Example 36, N-(4-(9H-benzo[f]pyrido[2,3-b][1,2,4]triazolo[4,3-d][1,4]diazepin-3-yl)phenyl)-3,3-dimethylbutanamide] | 0.34 µM
CC(C)(C)OC(=O)NC1(c2ccc(-c3nnc4n3-c3cccnc3Nc3ccccc3-4)cc2)CC1 [Example 221, tert-butyl (1-(4-(9H-benzo[f]pyrido[2,3-b][1,2,4]triazolo[4,3-d][1,4]diazepin-3-yl)phenyl)cyclopropyl)carbamate] | 1.4 µM
O=S(=O)(NC1(c2ccc(-c3nnc4n3-c3cccnc3Nc3ccccc3-4)cc2)CCC1)c1cccc(F)c1 [Example 204, N-(1-(4-(9H-benzo[f]pyrido[2,3-b][1,2,4]triazolo[4,3-d][1,4]diazepin-3-yl)phenyl)cyclobutyl)-3-fluorobenzenesulfonamide] | 0.76 µM
FC(F)(F)c1ccc(-c2nnc3n2-c2cccnc2Nc2ccccc2-3)cc1 [Example 8, 3-(4-(trifluoromethyl)phenyl)-9H-benzo[f]pyrido[2,3-b][1,2,4]triazolo[4,3-d][1,4]diazepine] | 30 µM
Cc1noc(C)c1S(=O)(=O)NC1CCN(Cc2ccc(-c3nnc4n3-c3cccnc3Nc3ccccc3-4)cc2)CC1 [Example 146, N-(1-(4-(9H-benzo[f]pyrido[2,3-b][1,2,4]triazolo[4,3-d][1,4]diazepin-3-yl)benzyl)piperidin-4-yl)-3,5-dimethylisoxazole-4-sulfonamide] | 6.8 µM
COCC(=O)Nc1ccc(-c2nnc3n2-c2cccnc2Nc2ccccc2-3)cc1 [Example 53, N-(4-(9H-benzo[f]pyrido[2,3-b][1,2,4]triazolo[4,3-d][1,4]diazepin-3-yl)phenyl)-2-methoxyacetamide] | 1.5 µM
Nc1ccc(-c2nnc3n2-c2cccnc2Nc2ccccc2-3)cn1 [Example 5, hydrochloride] | 2.1 µM
Cc1cccc2c1Nc1ncccc1-n1c(-c3ccc(C4(N)CCC4)cc3)nnc1-2 [Example 218, 1-(4-(10-methyl-9H-benzo[f]pyrido[2,3-b][1,2,4]triazolo[4,3-d][1,4]diazepin-3-yl)phenyl)cyclobutanamine] | 1.4 µM
CC(=O)Nc1ccc(S(=O)(=O)NC2CCN(Cc3ccc(-c4nnc5n4-c4cccnc4Nc4ccccc4-5)cc3)CC2)cc1 [Example 151, N-(4-(N-(1-(4-(9H-benzo[f]pyrido[2,3-b][1,2,4]triazolo[4,3-d][1,4]diazepin-3-yl)benzyl)piperidin-4-yl)sulfamoyl)phenyl)acetamide] | 5 µM

SMILES | IC50
Cc1ccc(-c2nnc3n2-c2cccnc2Nc2ccccc2-3)cc1 [Example 6, hydrochloride] | 13 µM
CN1c2ccccc2-c2nnc(-c3ccc4ccccc4c3)n2-c2ccccc21 [Example 14, hydrochloride] | 67 µM
CC(C)CS(=O)(=O)NC1CCN(Cc2ccc(-c3nnc4n3-c3cccnc3Nc3ccccc3-4)cc2)CC1 [Example 154, N-(1-(4-(9H-benzo[f]pyrido[2,3-b][1,2,4]triazolo[4,3-d][1,4]diazepin-3-yl)benzyl)piperidin-4-yl)-2-methylpropane-1-sulfonamide] | 6.4 µM
COCCNCc1ccc(-c2nnc3n2-c2cccnc2Nc2ccccc2-3)cc1 [Example 73, N-(4-(9H-benzo[f]pyrido[2,3-b][1,2,4]triazolo[4,3-d][1,4]diazepin-3-yl)benzyl)-2-methoxyethanamine] | 4.6 µM
c1ccc(CCN2CCN(Cc3ccc(-c4nnc5n4-c4cccnc4Nc4ccccc4-5)cc3)CC2)cc1 [Example 94, 3-(4-((4-phenethylpiperazin-1-yl)methyl)phenyl)-9H-benzo[f]pyrido[2,3-b][1,2,4]triazolo[4,3-d][1,4]diazepine] | 5.8 µM
O=C(NCc1ccc(-c2nnc3n2-c2cccnc2Nc2ccccc2-3)cc1)c1cccnc1 [Example 96, N-(4-(9H-benzo[f]pyrido[2,3-b][1,2,4]triazolo[4,3-d][1,4]diazepin-3-yl)benzyl)nicotinamide] | 0.2 µM
OCC1CCN(Cc2ccc(-c3nnc4n3-c3cccnc3Nc3ccccc3-4)cc2)CC1 [Example 76, (1-(4-(9H-benzo[f]pyrido[2,3-b][1,2,4]triazolo[4,3-d][1,4]diazepin-3-yl)benzyl)piperidin-4-yl)methanol] | 8.3 µM
Nc1ccc(-c2nnc3n2-c2ccccc2Nc2ccccc2-3)cc1 [Example 22, 4-(9H-dibenzo[b,f][1,2,4]triazolo[4,3-d][1,4]diazepin-3-yl)aniline] | 1.8 µM
O=S(=O)(NC1CCN(Cc2ccc(-c3nnc4n3-c3cccnc3Nc3ccccc3-4)cc2)CC1)c1ccccc1F [Example 147, N-(1-(4-(9H-benzo[f]pyrido[2,3-b][1,2,4]triazolo[4,3-d][1,4]diazepin-3-yl)benzyl)piperidin-4-yl)-2-fluorobenzenesulfonamide] | 2.3 µM
CC(C)(C)OC(=O)NC1CCN(Cc2ccc(-c3nnc4n3-c3cccnc3Nc3ccccc3-4)cc2)CC1 [Example 201, tert-butyl (1-(4-(9H-benzo[f]pyrido[2,3-b][1,2,4]triazolo[4,3-d][1,4]diazepin-3-yl)benzyl)piperidin-4-yl)carbamate] | 1.9 µM
Clc1ccc(-c2nnc3n2-c2cccnc2Nc2ccccc2-3)cc1 [Example 9, hydrochloride] | 5.1 µM
O=C(c1ccc(F)cc1)N1CCN(Cc2ccc(-c3nnc4n3-c3cccnc3Nc3ccccc3-4)cc2)CC1 [Example 132, (4-(4-(9H-benzo[f]pyrido[2,3-b][1,2,4]triazolo[4,3-d][1,4]diazepin-3-yl)benzyl)piperazin-1-yl)(4-fluorophenyl)methanone] | 3.2 µM
c1ccc(-c2nnc(C3CCN(Cc4ccc(-c5nnc6n5-c5cccnc5Nc5ccccc5-6)cc4)CC3)o2)cc1 [Example 207, 2-(1-(4-(9H-benzo[f]pyrido[2,3-b][1,2,4]triazolo[4,3-d][1,4]diazepin-3-yl)benzyl)piperidin-4-yl)-5-phenyl-1,3,4-oxadiazole] | 0.66 µM
CC(C)(C)C(=O)Nc1ccc(-c2nnc3n2-c2cccnc2Nc2ccccc2-3)cc1 [Example 43, N-(4-(9H-benzo[f]pyrido[2,3-b][1,2,4]triazolo[4,3-d][1,4]diazepin-3-yl)phenyl)pivalamide] | 0.42 µM
Cc1ccc2c(c1)Nc1ncccc1-n1c(-c3ccc(C4(N)CCC4)cc3)nnc1-2 [Example 223, 1-(4-(11-methyl-9H-benzo[f]pyrido[2,3-b][1,2,4]triazolo[4,3-d][1,4]diazepin-3-yl)phenyl)cyclobutanamine] | 0.49 µM
Nc1cc(-c2nnc3n2-c2cccnc2Nc2ccccc2-3)ccn1 [Example 3, 4-(9H-benzo[f]pyrido[2,3-b][1,2,4]triazolo[4,3-d][1,4]diazepin-3-yl)pyridin-2-amine] | 13 µM
Cc1nc(C)c(S(=O)(=O)NC2CCN(Cc3ccc(-c4nnc5n4-c4cccnc4Nc4ccccc4-5)cc3)CC2)s1 [Example 153, N-(1-(4-(9H-benzo[f]pyrido[2,3-b][1,2,4]triazolo[4,3-d][1,4]diazepin-3-yl)benzyl)piperidin-4-yl)-2,4-dimethylthiazole-5-sulfonamide] | 5.3 µM
